Results as given in patent US4613695A, “N-nitroso compounds and compositions containing such compounds” (Aktiebolaget Leo, priority 1982, dated 1986).
Like-named read-outs stand apart in the source and are kept apart here.

Legend:
Lymphatic leukemia L1210 = Lymphatic leukemia L1210 survival test (survival time increase, long term survival, cure potential); assay type: in vivo, Female BDF1 mice; conditions: for minimal effective dose: Mus musculus, L1210, po; for minimal effective dose / Maximum effective dose (survival time increase) / Dose or dose range for cure: p.o. once; for T.I.s (long term survival; max.effect.dose/min.effect.dose): long term survival T·100/To >20%; for T.I.s = max.effect.dose/min.effect.dose: survival time increase, t·100/c ≥125%; for Dose or dose range for cure: ≥90% long term survivors on day 60
Protocol: The experimental design and interpretation of the results are in accordance with the standards set by the CCNSC (see reference (16)) and by the DR&D (see reference (17)).
Experimental animals: Female BDF1 mice
Tumour implants: 10^5 tumour cells implanted intraperitoneally (i. p.)
Therapy: The compounds were administered p. o. once on the day following the implantation.
Termination: The animals were killed on the 60th day after the implantation. Living animals on the 60th day are termed long term survivors.
(a) Evaluation of therapeutic dose range for survival time increase: Survival times at various dose levels are determined, and the survival time of the test animals (t) is expressed as the percentage of that of the control animals (c):
The maximum effective dose and the minimum effective dose required to achieve t·100/c≥125% are determined, and a therapeutic index as defined below is calculated:
T. I.s =max.effect.dose/min.effect.dose.
(b) Evaluation of therapeutic dose range for long term survival: Long time survival is determined at various dose levels and is expressed as surviving test animals on day 60 (T) as the percentage of that of the total number of test animals (To):
The maximum effective dose and the minimum effective dose to achieve long term survival T·100/To >20% are determined and a therapeutic index, T. I.1 s is calculated:
T. I.1s =max.effect.dose/min.effect.dose.
(c) Evaluation of cure potential: The normal survival time for test animals receiving no therapeutic treatment is 9-11 days. Surviving test animals on the 60th day after implantation showing no sign of tumour presence are regarded as cured animals. Long term survival is determined as under (b) above, and the effective dose or dose range to achieve a long term survival T·100/To ≥90% is determined as an evaluation of the cure potential.

in vivo = conditions: rat, po
Source text: (§1) A therapeutic index is an indication of the therapeutic usefulness of a compound, and such an index may be defined in various ways. One type of therapeutic index commonly used is the ratio LD50/ED50, wherein LD50 is the dose that causes a 50 percent lethality, and ED50 is the dose that causes a 50 percent reduction of tumour size. Another type of therapeutic index, useful in evaluation of increasing survival time, is the ratio between maximum and minimum effective dose. Both these types of therapeutic indexes are used and given in the experimental results below.
(§2) The manner of administration of the compounds is by the oral (p. o.) route in each case.
(§3) Experimental animals: Female Sprague Dawley rats
(§4) Tumour implants: Tumour pieces with 2-3 mm diameter, implanted subcutaneously
(§5) Therapy: The compound is administered p. o. once on the day after the implantation
(§6) Evaluation: Weight of tumour is determined in test animals and compared with those of control animals. For each compound the LD50 and ED50 dose (as defined above) are determined. The therapeutic index, T. I., (LD50/ED50) is calculated.

[1] = test system: Walker carcinosarcoma 256; assay: Walker carcinosarcoma 256 tumour growth inhibition (single p.o. dose); assay type: in vivo, Female Sprague Dawley rats; conditions: for ED50: Rattus norvegicus, dose that causes a 50 percent reduction of tumour size, p.o. once, read-out: ED50
Source text: as §1, §2, §3, §4, §5
Termination: The animals are killed on the 9th day after implantation
as §6

[2] = cited from earlier work
[3] = 1440 h, >20% long term survivors on day 60, read-out: Minimum effective dose (long term survival)
[4] = median survival time percent of control ≥ 125%, read-out: Minimum effective dose (survival time increase)
[5] = median survival time percent of control ≥ 125%
[6] = therapeutic index LD50/ED50, p.o.

| SMILES | minimal effective dose (Lymphatic leukemia L1210; [3]) | minimal effective dose (Lymphatic leukemia L1210; [4]) | T.I.s (long term survival; max.effect.dose/min.effect.dose) (Lymphatic leukemia L1210) | Maximum effective dose (survival time increase) (Lymphatic leukemia L1210; [5]) | T.I.s = max.effect.dose/min.effect.dose (Lymphatic leukemia L1210) | LD50 (in vivo) | ED50 ([1]; po) | T.I. LD50/ED50 [1, 6] | Dose or dose range for cure (Lymphatic leukemia L1210) | T.I. LD50/ED50 ([1]; rat, in vivo, po) | other types of toxicities ([2]; references (6, 7)) | bone marrow toxicity ([2]; under clinical evaluation, reference (5)) |
| --- | --- | --- | --- | --- | --- | --- | --- | --- | --- | --- | --- | --- |
| CCN(CC)S(=O)(=O)CCNC(=O)N(CCCl)N=O [1:2, 1-(2-chloroethyl)-3-(2-/diethylaminosulfonyl/ethyl)-1-nitrosourea] | 63 mg/kg | 16 mg/kg | 2 | 125 mg/kg | 8 | 60 mg/kg | 0.4 mg/kg | 150 |  |  |  |  |
| O=NN(CCCl)C(=O)NCCS(=O)(=O)NCCO [1:14, 1-(2-chloroethyl)-3-(2-/2-hydroxyethylaminosulfonyl/ethyl)-1-nitrosourea] | 31 mg/kg | 16 mg/kg | 4 | 125 mg/kg | 8 | 90 mg/kg | 0.6 mg/kg | 150 | 63 mg/kg |  |  |  |
| CNS(=O)(=O)CCNC(=O)N(CCCl)N=O [1:5, 1-(2-chloroethyl)-3-(2-/methylaminosulfonyl/ethyl)-1-nitrosourea] |  | 8 mg/kg |  | 63 mg/kg | 8 | 40 mg/kg | 0.25 mg/kg | 160 | 31 mg/kg |  |  |  |
| CCCN(CCC)S(=O)(=O)CCNC(=O)N(CCCl)N=O [1:6, 1-(2-chloroethyl)-3-(2-/dipropylaminosulfonyl/ethyl)-1-nitrosourea] |  | 31 mg/kg |  | 250 mg/kg | 8 | 250 mg/kg | 2 mg/kg | 125 | 125 mg/kg |  |  |  |
| CN(C)S(=O)(=O)CCCCNC(=O)N(CCCl)N=O [1:24, 1-(2-chloroethyl)-3-(4-/dimethylaminosulfonyl/butyl)-1-nitrosourea] | 63 mg/kg | 31 mg/kg | 4 | 250 mg/kg | 8 | 250 mg/kg | 2 mg/kg |  | 125 mg/kg | 125 |  |  |
| O=NN(CCCl)C(=O)NCCS(=O)(=O)N1CCCCC1 [1:4, 1-(2-chloroethyl)-1-nitroso-3-(2-/1-piperidinosulfonyl/ethyl)-urea] | 31 mg/kg | 8 mg/kg | 4 | 125 mg/kg | 16 | 125 mg/kg | 1 mg/kg | 125 | 125 mg/kg |  |  |  |
| CN(C)S(=O)(=O)CCCCCNC(=O)N(CCCl)N=O [1:19, 1-(2-chloroethyl)-3-(5-/dimethylaminosulfonyl/pentyl)-1-nitrosourea] | 63 mg/kg |  | 2 |  |  | 250 mg/kg | 1 mg/kg | 250 | 125 mg/kg |  |  |  |
| O=NN(CCCl)C(=O)N[C@H]1C(O)O[C@H](CO)[C@@H](O)[C@@H]1O (stereo partly drawn) [Chlorozotocin, 2-/3-(2-chloroethyl)-3-nitrosoureido/-D-glucopyranose] |  |  |  |  |  |  |  |  |  |  | still evident, e.g. liver and lung toxicity | decreased bone marrow toxicity |
| O=NN(CCCl)C(=O)NCCCl [BCNU, 1,2-bis-(2-chloroethyl)-nitrosourea, reference compound] | 63 mg/kg | 16 mg/kg | 1 | 63 mg/kg | 4 | 50 mg/kg | 1 mg/kg | 50 | none |  |  |  |
| NS(=O)(=O)CCNC(=O)N(CCCl)N=O [1:3, 3-(2-/aminosulfonyl/ethyl)-1-(2-chloroethyl)-1-nitrosourea] | 16 mg/kg |  | 2 |  |  | 40 mg/kg | 0.2 mg/kg | 200 |  |  |  |  |
